Assay results published in the kinase profiling compilation of Christmann-Franck et al. (2016).

Key:
Assay in all cases: radiometric filter-binding kinase assay, Kinaseprofiler
[1] = target: CDK3 CCNE1 (human) (UniProt Q00526+P24864); conditions: ATP 200 µM
[2] = target: CAMK1 (human) (UniProt Q14012); conditions: ATP 200 µM
[3] = target: ALK (human) (UniProt Q9UM73); conditions: ATP 200 µM
[4] = target: KDR (human) (UniProt P35968); conditions: ATP 90 µM
[5] = target: CSNK1G2 (human) (UniProt P78368); conditions: ATP 10 µM
[6] = target: CDK7 CCNH MNAT1 (human) (UniProt P50613+P51948+P51946); conditions: ATP 90 µM
[7] = target: ZAP70 (human) (UniProt P43403); conditions: ATP 15 µM
[8] = target: SRPK1 (human) (UniProt Q96SB4); conditions: ATP 10 µM
[9] = target: INSRR (human) (UniProt P14616); conditions: ATP 200 µM
[10] = target: GSG2 (human) (UniProt Q8TF76); conditions: ATP 70 µM
[11] = target: TYRO3 (human) (UniProt Q06418); conditions: ATP 45 µM
[12] = target: DYRK2 (human) (UniProt Q92630); conditions: ATP 15 µM
[13] = target: MAP2K6 (human) (UniProt P52564); conditions: ATP 10 µM
[14] = target: SRC (human) (UniProt P12931); conditions: ATP 200 µM
[15] = target: FGFR2 (human) (UniProt P21802); conditions: ATP 90 µM
[16] = target: HCK (human) (UniProt P08631)
[17] = target: GCK (human) (UniProt Q12851); conditions: ATP 200 µM
[18] = target: CDK5 CDK5R1 p35 (human) (UniProt Q00535+Q15078); conditions: ATP 15 µM
[19] = target: MTOR (human) (UniProt P42345); conditions: ATP 70 µM
[20] = target: PTK2 (human) (UniProt Q05397); conditions: ATP 70 µM
[21] = target: PDGFRB (human) (UniProt P09619); conditions: ATP 200 µM
[22] = target: IKBKB (human) (UniProt O14920); conditions: ATP 10 µM
[23] = target: PDGFRA (human) (UniProt P16234); conditions: ATP 120 µM
[24] = target: RIPK2 (human) (UniProt O43353); conditions: ATP 120 µM
[25] = target: GRK6 (human) (UniProt P43250); conditions: ATP 45 µM
[26] = target: STK10 (human) (UniProt O94804); conditions: ATP 200 µM
[27] = target: AURKC (human) (UniProt Q9UQB9); conditions: ATP 15 µM
[28] = target: STK17A (human) (UniProt Q9UEE5); conditions: ATP 10 µM
[29] = target: EPHA5 (human) (UniProt P54756); conditions: ATP 10 µM
[30] = target: CHEK1 (human) (UniProt O14757); conditions: ATP 90 µM
[31] = target: CHUK (human) (UniProt O15111); conditions: ATP 10 µM
[32] = target: KIT (human) (UniProt P10721); conditions: ATP 200 µM

Sequence of HCK (human) (P08631 whole entry, looked up): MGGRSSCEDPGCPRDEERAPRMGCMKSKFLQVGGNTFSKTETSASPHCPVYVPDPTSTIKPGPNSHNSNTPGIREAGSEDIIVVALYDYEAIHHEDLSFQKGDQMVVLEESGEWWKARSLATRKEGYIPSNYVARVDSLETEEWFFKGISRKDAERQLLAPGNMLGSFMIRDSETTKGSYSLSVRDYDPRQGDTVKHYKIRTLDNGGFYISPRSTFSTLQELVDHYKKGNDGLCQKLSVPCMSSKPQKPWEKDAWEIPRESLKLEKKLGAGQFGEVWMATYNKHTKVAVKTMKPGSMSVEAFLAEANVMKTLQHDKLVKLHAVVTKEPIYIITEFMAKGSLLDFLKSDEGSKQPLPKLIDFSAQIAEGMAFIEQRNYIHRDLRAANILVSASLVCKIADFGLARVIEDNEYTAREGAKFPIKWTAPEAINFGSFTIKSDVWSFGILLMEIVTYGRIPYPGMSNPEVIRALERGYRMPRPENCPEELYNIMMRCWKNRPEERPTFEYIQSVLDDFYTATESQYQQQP
Sequence of CDK7 CCNH MNAT1 (human) (P50613 whole entry, looked up): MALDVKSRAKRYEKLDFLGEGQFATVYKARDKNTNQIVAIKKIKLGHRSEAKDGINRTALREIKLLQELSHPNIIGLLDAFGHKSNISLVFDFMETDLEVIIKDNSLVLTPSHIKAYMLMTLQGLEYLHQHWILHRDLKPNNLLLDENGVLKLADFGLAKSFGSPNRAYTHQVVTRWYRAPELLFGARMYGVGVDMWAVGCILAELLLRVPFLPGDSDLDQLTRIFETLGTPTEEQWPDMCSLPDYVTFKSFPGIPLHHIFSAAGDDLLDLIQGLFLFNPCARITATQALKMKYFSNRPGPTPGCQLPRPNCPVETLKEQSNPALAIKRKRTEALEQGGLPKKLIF
Sequence of CDK7 CCNH MNAT1 (human) (P51946 whole entry, looked up): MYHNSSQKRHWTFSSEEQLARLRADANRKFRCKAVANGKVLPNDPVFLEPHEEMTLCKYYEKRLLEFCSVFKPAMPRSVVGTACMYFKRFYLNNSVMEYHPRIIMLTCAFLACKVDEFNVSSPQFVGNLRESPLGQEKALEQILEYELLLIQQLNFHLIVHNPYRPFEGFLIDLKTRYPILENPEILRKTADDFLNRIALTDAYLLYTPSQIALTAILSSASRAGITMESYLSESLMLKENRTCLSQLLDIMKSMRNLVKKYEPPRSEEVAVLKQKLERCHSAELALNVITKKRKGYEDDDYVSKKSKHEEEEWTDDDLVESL
Sequence of CDK7 CCNH MNAT1 (human) (P51948 whole entry, looked up): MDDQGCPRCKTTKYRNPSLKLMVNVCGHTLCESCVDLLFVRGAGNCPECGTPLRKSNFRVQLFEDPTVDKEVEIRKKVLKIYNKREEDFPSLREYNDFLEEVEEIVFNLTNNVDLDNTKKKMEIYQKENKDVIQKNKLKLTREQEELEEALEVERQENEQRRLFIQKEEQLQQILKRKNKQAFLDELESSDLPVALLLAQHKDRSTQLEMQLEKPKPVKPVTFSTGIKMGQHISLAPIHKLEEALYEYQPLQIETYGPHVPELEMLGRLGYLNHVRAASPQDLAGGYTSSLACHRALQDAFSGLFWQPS
Sequence of GCK (human) (Q12851 whole entry, looked up): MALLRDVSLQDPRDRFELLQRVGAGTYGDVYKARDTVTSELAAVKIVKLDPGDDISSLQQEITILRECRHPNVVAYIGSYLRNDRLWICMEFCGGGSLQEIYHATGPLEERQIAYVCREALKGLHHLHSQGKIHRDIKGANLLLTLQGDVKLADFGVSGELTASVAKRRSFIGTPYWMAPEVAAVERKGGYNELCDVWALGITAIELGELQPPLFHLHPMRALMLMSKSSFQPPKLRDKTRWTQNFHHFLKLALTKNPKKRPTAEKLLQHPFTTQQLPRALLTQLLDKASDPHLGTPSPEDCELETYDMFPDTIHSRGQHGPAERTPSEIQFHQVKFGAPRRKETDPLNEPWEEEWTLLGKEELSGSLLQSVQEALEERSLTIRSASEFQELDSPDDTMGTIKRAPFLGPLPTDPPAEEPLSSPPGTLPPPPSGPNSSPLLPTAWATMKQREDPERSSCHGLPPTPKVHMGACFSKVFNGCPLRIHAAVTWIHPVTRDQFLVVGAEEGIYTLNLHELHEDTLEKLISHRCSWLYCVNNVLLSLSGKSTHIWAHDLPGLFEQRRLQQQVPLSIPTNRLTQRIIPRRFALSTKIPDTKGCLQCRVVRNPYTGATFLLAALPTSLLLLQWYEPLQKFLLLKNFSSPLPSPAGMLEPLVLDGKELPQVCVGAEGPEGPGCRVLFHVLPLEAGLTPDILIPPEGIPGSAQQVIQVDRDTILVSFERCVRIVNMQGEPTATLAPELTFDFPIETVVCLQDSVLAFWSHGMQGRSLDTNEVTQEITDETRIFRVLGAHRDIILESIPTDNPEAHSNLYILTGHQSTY
Sequence of STK10 (human) (O94804 whole entry, looked up): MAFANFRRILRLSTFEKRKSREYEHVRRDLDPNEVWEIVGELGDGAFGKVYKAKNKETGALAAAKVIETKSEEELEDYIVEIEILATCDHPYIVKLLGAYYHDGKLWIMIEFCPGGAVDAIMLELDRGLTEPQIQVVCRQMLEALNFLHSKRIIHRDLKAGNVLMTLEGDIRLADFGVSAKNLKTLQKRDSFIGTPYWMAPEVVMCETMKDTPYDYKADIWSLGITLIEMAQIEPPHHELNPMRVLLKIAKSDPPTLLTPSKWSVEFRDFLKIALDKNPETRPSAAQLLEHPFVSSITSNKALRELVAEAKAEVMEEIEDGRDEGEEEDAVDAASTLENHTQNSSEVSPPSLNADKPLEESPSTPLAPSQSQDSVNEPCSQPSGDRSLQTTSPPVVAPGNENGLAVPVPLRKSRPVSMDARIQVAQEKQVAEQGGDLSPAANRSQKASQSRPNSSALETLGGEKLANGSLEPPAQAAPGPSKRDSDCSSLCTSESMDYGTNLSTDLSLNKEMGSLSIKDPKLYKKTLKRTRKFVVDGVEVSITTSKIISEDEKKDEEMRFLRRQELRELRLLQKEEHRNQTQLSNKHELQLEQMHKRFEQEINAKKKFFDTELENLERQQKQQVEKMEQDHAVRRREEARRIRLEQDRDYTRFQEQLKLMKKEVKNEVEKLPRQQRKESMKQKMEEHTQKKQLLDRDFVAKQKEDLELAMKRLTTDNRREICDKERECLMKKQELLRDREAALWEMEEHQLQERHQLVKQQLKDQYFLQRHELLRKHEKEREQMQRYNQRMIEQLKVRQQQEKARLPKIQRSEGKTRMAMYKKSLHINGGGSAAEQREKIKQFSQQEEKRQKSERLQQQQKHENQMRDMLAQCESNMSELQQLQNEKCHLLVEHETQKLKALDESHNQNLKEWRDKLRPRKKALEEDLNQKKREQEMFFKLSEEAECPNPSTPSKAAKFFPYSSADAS
Sequence of ZAP70 (human) (P43403 whole entry, looked up): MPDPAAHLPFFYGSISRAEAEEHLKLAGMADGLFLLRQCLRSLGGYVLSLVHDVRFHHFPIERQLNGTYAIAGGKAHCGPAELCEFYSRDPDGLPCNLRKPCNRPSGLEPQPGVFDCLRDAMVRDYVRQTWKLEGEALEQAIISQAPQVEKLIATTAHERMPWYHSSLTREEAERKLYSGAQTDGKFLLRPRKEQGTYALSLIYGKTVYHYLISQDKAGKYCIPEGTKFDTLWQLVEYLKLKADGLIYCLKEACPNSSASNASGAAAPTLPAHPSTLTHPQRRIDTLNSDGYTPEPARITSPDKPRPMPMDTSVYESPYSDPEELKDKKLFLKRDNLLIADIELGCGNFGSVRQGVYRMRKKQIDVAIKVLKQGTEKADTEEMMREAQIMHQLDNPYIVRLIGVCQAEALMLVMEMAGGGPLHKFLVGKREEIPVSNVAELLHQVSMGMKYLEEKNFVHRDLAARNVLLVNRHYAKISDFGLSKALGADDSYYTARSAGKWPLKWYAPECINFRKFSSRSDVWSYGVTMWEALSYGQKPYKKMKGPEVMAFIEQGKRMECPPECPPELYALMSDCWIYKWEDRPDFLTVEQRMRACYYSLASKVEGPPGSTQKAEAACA
Sequence of FGFR2 (human) (P21802 whole entry, looked up): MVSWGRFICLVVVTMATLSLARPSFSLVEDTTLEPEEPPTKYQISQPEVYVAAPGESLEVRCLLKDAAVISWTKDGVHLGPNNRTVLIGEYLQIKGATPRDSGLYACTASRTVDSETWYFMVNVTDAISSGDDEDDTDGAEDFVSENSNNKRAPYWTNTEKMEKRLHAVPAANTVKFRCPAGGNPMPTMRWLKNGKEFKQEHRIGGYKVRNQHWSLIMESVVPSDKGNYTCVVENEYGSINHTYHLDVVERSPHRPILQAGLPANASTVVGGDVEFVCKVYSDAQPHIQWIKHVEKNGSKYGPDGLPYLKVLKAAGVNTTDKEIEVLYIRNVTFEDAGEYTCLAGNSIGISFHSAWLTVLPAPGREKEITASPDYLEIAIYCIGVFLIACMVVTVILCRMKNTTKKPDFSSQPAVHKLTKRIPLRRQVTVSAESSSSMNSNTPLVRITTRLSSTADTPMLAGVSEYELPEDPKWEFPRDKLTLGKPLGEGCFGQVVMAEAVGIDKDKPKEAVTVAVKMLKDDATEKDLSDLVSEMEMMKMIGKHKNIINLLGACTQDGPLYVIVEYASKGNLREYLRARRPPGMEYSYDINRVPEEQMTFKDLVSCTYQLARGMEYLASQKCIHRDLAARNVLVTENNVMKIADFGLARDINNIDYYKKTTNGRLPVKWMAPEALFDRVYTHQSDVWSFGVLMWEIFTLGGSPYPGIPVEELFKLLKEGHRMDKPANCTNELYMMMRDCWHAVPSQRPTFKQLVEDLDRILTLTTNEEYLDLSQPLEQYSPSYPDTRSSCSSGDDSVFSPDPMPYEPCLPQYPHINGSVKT

- residual activity ([1]; compound 1.0 µM): 5%
- residual activity ([1]; compound 10.0 µM): 0%
- residual activity ([2]; compound 1.0 µM): 72%
- residual activity ([2]; compound 10.0 µM): 21%
- residual activity ([3]; compound 1.0 µM): 52%
- residual activity ([3]; compound 10.0 µM): 18%
- residual activity ([4]; compound 1.0 µM): 4%
- residual activity ([4]; compound 10.0 µM): 1%
- residual activity ([5]; compound 1.0 µM): 64%
- residual activity ([5]; compound 10.0 µM): 20%
- residual activity ([6]; compound 1.0 µM): 42%
- residual activity ([6]; compound 10.0 µM): 16%
- residual activity ([7]; compound 1.0 µM): 79%
- residual activity ([7]; compound 10.0 µM): 91%
- residual activity ([8]; compound 1.0 µM): 90%
- residual activity ([8]; compound 10.0 µM): 66%
- residual activity ([9]; compound 1.0 µM): 2%
- residual activity ([9]; compound 10.0 µM): 1%
- residual activity ([10]; compound 1.0 µM): 26%
- residual activity ([10]; compound 10.0 µM): 19%
- residual activity ([11]; compound 1.0 µM): 62%
- residual activity ([11]; compound 10.0 µM): 15%
- residual activity ([12]; compound 1.0 µM): 79%
- residual activity ([12]; compound 10.0 µM): 20%
- residual activity ([13]; compound 1.0 µM): 63%
- residual activity ([13]; compound 10.0 µM): 40%
- residual activity ([14]; compound 1.0 µM): 35%
- residual activity ([14]; compound 10.0 µM): 5%
- residual activity ([15]; compound 1.0 µM): 22%
- residual activity ([15]; compound 10.0 µM): 2%
- residual activity ([16]; compound 1.0 µM, ATP 45 µM): 8%
- residual activity ([16]; compound 1.0 µM, ATP 70 µM): 15%
- residual activity ([16]; compound 10.0 µM, ATP 45 µM): 1%
- residual activity ([16]; compound 10.0 µM, ATP 70 µM): 5%
- residual activity ([17]; compound 1.0 µM): 13%
- residual activity ([17]; compound 10.0 µM): 1%
- residual activity ([18]; compound 1.0 µM): 5%
- residual activity ([18]; compound 10.0 µM): 1%
- residual activity ([19]; compound 1.0 µM): 100%
- residual activity ([19]; compound 10.0 µM): 98%
- residual activity ([20]; compound 1.0 µM): 39%
- residual activity ([20]; compound 10.0 µM): 2%
- residual activity ([21]; compound 1.0 µM): 84%
- residual activity ([21]; compound 10.0 µM): 26%
- residual activity ([22]; compound 1.0 µM): 87%
- residual activity ([22]; compound 10.0 µM): 67%
- residual activity ([23]; compound 1.0 µM): 87%
- residual activity ([23]; compound 10.0 µM): 37%
- residual activity ([24]; compound 1.0 µM): 60%
- residual activity ([24]; compound 10.0 µM): 27%
- residual activity ([25]; compound 1.0 µM): 81%
- residual activity ([25]; compound 10.0 µM): 80%
- residual activity ([26]; compound 1.0 µM): 66%
- residual activity ([26]; compound 10.0 µM): 71%
- residual activity ([27]; compound 1.0 µM): 61%
- residual activity ([27]; compound 10.0 µM): 49%
- residual activity ([28]; compound 1.0 µM): 6%
- residual activity ([28]; compound 10.0 µM): 4%
- residual activity ([29]; compound 1.0 µM): 59%
- residual activity ([29]; compound 10.0 µM): 9%
- residual activity ([30]; compound 1.0 µM): 65%
- residual activity ([30]; compound 10.0 µM): 30%
- residual activity ([31]; compound 1.0 µM): 76%
- residual activity ([31]; compound 10.0 µM): 57%
- residual activity ([32]; compound 1.0 µM): 20%
- residual activity ([32]; compound 10.0 µM): 2%
Compound: O=C1Nc2ccccc2/C1=C1\Nc2ccccc2\C1=N/O
